This assay relates to 6 MRSA strains. Briefly: MIC, panel of 6 MRSA strains. It is filed as cell-based. To be noted: Staphylococcus aureus, across the panel of tested Gram-positive strains, read-out: MIC against all the 6 MRSA strains. On the procedure:
Antibacterial activity: The compounds were tested for the minimum inhibitory concentrations (MIC), which is the lowest concentration of a chemical required to inhibit visible microbial growth following overnight incubation. MIC values were determined using broth microdilution method according to the Clinical and Laboratory Standards Institute guidelines (CLSI, 2015, M07-A10). Mueller-Hinton broth was used as a culture medium in all the experiments. Exponentially growing bacterial cells were prepared in Mueller-Hinton broth at a concentration of approximately 5×10^5 CFU/mL. Two-fold serial dilutions of the test compound (8 concentrations ranged between 100-0.78 μg/mL) were tested. […] In each experiment, solvent (DMSO) was used as a negative control, un-treated control (composing of bacteria in Mueller-Hinton broth) was used as a growth control, blank (culture media alone) was used as sterility control. The 96-well microplate with the test compounds was incubated overnight at 37° C. Turbidity in wells indicated bacterial growth.
The compounds were tested on six MDR Gram-positive bacteria including three clinical isolates of methicillin-resistant Staphylococcus aureus (MRSA-1, MRSA-2 and MRSA-3) and three reference MRSA strains (ATCC33591, ATCC33592 and ATCC700699). They were also tested on three MDR Gram-negative bacteria including New Delhi metallo-beta-lactamase (NDM-1) positive, carbapenem-resistant E. coli (ATCC BAA2469), extended-spectrum beta-lactamase (ESBL) producing, colistin-resistant E. coli (CDC-AR-0346) and carbapenem-resistant Acinetobacter baumannii (ATCC BAA1605), in addition to two non-MDR bacteria from the same species, namely E. coli (ATCC 25922) Acinetobacter baumannii (ATCC 19606).

The structures appear in SMILES notation. Converted amounts (≈) assume the structure as drawn.

By MIC is commonly meant the least concentration at which growth counts as inhibited. With `Cc1ccc2c(c1)c1c3n2[C@@]2(C=C/C(=N\Nc4ccc(C(F)(F)F)cc4)CC2)CC[C@@H]3NCC1` [Compound 1h], the MIC was determined as 1.56 µg/mL (≈ 3.36 µM).

Source of the values: US11286258B2, “Nature-inspired anticancer and antibacterial motifs and pharmaceutical composition thereof” (University of Sharjah, priority 2020, dated 2022).
